# Test results as given in ChEMBL document CHEMBL1764989, “Local structural changes, global data views: graphical substructure-activity relationship trailing” (J Med Chem, 2011).
# Biological target: Coagulation factor X (Homo sapiens, UniProt P00742)
# Assay: Inhibition of human factor 10a
# Coagulation factor X, sequence (P00742 41-179 limits assumed): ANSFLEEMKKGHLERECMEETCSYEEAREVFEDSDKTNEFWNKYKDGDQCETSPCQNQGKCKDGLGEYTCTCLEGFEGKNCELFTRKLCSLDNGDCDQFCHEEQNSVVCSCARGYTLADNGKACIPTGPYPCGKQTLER
# Coagulation factor X, sequence (P00742 235-488 limits assumed): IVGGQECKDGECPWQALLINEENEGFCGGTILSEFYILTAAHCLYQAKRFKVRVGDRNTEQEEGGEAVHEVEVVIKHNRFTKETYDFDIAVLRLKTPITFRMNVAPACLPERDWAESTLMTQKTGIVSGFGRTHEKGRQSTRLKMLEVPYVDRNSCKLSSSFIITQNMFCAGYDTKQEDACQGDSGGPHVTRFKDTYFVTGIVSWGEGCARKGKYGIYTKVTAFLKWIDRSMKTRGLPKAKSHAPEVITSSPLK
row,Compound,Ki [nM]
1,COc1ccc2ccc(S(=O)(=O)NC3CCN(Cc4cc(N)cc(C(=N)N)c4)C3=O)cc2c1 (stereo not given),1260
2,COc1ccc2ccc(S(=O)(=O)NC3CCN(Cc4cc(C(=N)N)ccc4O)C3=O)cc2c1 (stereo not given),3.16
3,COc1ccc2ccc(S(=O)(=O)NC3CCN(Cc4ccc(O)c(C(=N)N)c4)C3=O)cc2c1 (stereo not given),1000
4,COC(=O)COc1ccc(C(=N)N)cc1CN1CCC(NS(=O)(=O)c2ccc3ccc(OC)cc3c2)C1=O (stereo not given),7.94
5,COc1ccc2ccc(S(=O)(=O)NC3CCN(Cc4cc(C(=N)N)ccc4OCC(=O)O)C3=O)cc2c1 (stereo not given),1260
6,COc1ccc(-n2nc(C(F)(F)F)c3c2C(=O)N(c2ccc(-c4ccccc4CN4CCC(O)C4)cc2)CC3)cc1 (stereo not given),0.501
7,COc1ccc(-n2nc(C(F)(F)F)c3c2C(=O)N(c2ccc(-c4ccccc4S(C)(=O)=O)cc2)CC3)cc1,0.2
8,COc1ccc(-n2nc(C(F)(F)F)c3c2C(=O)N(c2ccc(N(C)C)cc2)CC3)cc1,6.31
9,COc1ccc(-n2nc(C(F)(F)F)c3c2C(=O)N(c2ccc(NC(C)=O)cc2)CC3)cc1,200
10,COc1ccc2ccc(S(=O)(=O)NC3CCN(Cc4cc(C(=N)N)ccc4N)C3=O)cc2c1 (stereo not given),6.31
